Assays:
Pin1 = Pin1 (Homo sapiens, UniProt Q13526); experiment: Immunoblotting for Pin1 and substrate oncoproteins in PDAC cells; type: cell-based; set-up: endogenous in cells; host or cells: primary human patient-derived PDAC cells (PDAC1, PDAC2); details: 72 hrs
Protocol: Cultured cells were lysed in RIPA buffer (50 mM Tris-HCl, pH 7.2, 150 mM NaCl, 1% NP40, 0.1% sodium dodecyl sulfate (SDS), 0.25% Na-deoxycholate) with freshly added phosphatase inhibitors containing 5 mM NaF and 0.2 mM sodium orthovanadate (NA3VO4), and proteinase inhibitors containing 2 μg/mL Aprotinin, 2 μg/mL Leupeptin, 2 μg/mL Pepstatin A, 1 mM DTT (dithiothreitol), 0.5 mM 4-(2-aminoethyl)-benzenesulfonyl fluoride (AEBSF), and 20 mM Chymotrypsin, and then mixed with the SDS sample buffer and loaded onto a gel after boiling for 10 minutes at 95° C. The proteins were resolved by polyacrylamide gel electrophoresis and transferred to PVDF membrane. The transferred membrane was washed three times with Tris-buffered saline containing 0.1% Tween 20 (TBST). After blocking with TBST containing 5% milk or 3% bovine serum albumin (BSA) for 1 h room temperature, the membrane was incubated with the appropriate primary antibody (diluted 1:500-1:10000) in 5% milk or 3% BSA-containing TBST at 4° C. overnight. After incubation with the primary antibody, the membrane was washed three times with TBST for a total of 30 min followed by incubation with horseradish peroxidase conjugated goat anti-rabbit or anti-mouse IgG (diluted 1:5000) for 1 h at room temperature. After three extensive washes with TBST for a total of 30 min, the immunoblots were visualized by enhanced chemi-luminescence. Immunoblotting results were quantified using ImageJ (NIH).

[1] = tested on: human PDAC cells (PDAC1 and PDAC2); experiment: Cell proliferation assay (CellTiter-Glo) in PDAC cells; type: cell-based; details: PDAC cells, 72 hrs
Protocol: Cells were seeded at a density of 5000 cells (PDAC1 and PDAC2), or 3000 cells (CAF1 and CAF2) per well in 96-well flat-bottomed plates and incubated for 24 h in culture medium. […] Control cells received dimethyl sulfoxide (DMSO) at a concentration equal to that of drug-treated cells for 72 hours. The cell viability was determined by CellTiter-Glo® 2.0 Assay (Promega) following the manufacturer's instructions.

[2] = in humans; cited from earlier work

Chain of Pin1 (Q13526 whole entry): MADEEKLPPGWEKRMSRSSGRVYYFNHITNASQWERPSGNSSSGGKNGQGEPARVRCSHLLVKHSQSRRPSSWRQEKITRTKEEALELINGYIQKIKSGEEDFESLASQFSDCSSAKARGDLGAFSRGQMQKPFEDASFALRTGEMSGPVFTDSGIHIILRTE

Molecule | Pin1 and its substrate oncoproteins (IB) (Pin1) | cell growth (proliferation assay) [1] | half-life [2] [min]
arsenic trioxide [ATO, reference compound] | ablate Pin1 | dose-dependently suppress cell growth | 
CC1=C(/C=C/C(C)=C/C=C/C(C)=C/C(=O)O)C(C)(C)CCC1 [ATRA, all-trans retinoic acid] | ablate Pin1 | dose-dependently suppress cell growth | ~45

From US20250319053A1, “INHIBITORS OF THE PEPTIDYL-PROLYL CIS/TRANS ISOMERASE (PIN1), COMBINATIONS AND USES THEREOF” (DANA-FARBER CANCER INSTITUTE, INC., priority 2021, published 2025)
